Source: patent EP4813991A1 (iLeadBMS Co., Ltd., priority 2023, dated 2025)
Where two headings read alike, the source gives them in different places.

How the values were obtained:
SNU-1 = test: Gastric cancer cell proliferation inhibitory activity (CellTiter Glo), SNU-1; type: cell-based; conditions: Homo sapiens, SNU1, 72 hours, relative IC50
Protocol: (§1) Experiments were performed using four types of gastric cancer cell lines (AGS, SNU-1, KATO-III, and MKN45) to measure the cell proliferation inhibitory ability of each Example compound. For AGS cells, 90 µL of cell suspension was dispensed into a 96-well plate using F-12K (Gibco) medium containing 10 % FBS, followed by incubation in a cell incubator at 37 °C and 5 % CO2. For SNU-1 and MKN45 cells, 90 µL of cell suspension was dispensed into a 96-well plate using RPMI1640 (Gibco) medium containing 10 % FBS, followed by incubation in a cell incubator at 37 °C and 5 % CO2. For KATO-III cells, 90 uL of cell suspension was dispensed into a 96-well plate using IMDM (Gibco) medium containing 10 % FBS, followed by incubation in a cell incubator at 37 °C and 5 % CO2. The next day, each Example compound dissolved and diluted in DMSO across 9 concentration ranges and a DMSO control group were added at 10 µL to each 96-well plate and treated for 72 hours. After completion of the compound treatment, 100 µL of CellTiter Glo (Promega) reagent was added to each well of the 96-well plate, followed by shaking for 10 minutes and standing at room temperature for 10 minutes. Luminescence signals were measured after inserting the 96-well plate into an Envision plate reader (PerkinElmer). Relative IC50 values were calculated by fitting a dose-response curve using XLfit (IDBS Ltd) software.
(§2) The gastric cancer cell proliferation inhibitory activities of the Example compounds measured by the method described above were evaluated according to the following criteria, and the results are presented in Table 16.

CDK1 = CDK1 (Homo sapiens, UniProt P06493); test: CDK1 kinase inhibitory activity assay and selectivity over CDK12; type: biochemical; conditions: for IC50: kinase reaction 120 minutes, 33P-gamma-ATP
Chain of CDK1 (P06493 whole entry, species assumed): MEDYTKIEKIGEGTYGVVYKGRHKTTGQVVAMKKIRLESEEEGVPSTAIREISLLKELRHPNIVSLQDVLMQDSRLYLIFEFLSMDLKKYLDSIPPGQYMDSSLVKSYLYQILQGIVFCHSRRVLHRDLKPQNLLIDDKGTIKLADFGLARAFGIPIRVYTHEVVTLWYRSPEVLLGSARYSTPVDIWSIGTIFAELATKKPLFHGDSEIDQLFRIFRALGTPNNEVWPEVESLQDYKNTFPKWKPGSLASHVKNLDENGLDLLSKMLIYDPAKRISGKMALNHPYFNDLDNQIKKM
Chain of CDK1 (P14635 whole entry partner, species assumed): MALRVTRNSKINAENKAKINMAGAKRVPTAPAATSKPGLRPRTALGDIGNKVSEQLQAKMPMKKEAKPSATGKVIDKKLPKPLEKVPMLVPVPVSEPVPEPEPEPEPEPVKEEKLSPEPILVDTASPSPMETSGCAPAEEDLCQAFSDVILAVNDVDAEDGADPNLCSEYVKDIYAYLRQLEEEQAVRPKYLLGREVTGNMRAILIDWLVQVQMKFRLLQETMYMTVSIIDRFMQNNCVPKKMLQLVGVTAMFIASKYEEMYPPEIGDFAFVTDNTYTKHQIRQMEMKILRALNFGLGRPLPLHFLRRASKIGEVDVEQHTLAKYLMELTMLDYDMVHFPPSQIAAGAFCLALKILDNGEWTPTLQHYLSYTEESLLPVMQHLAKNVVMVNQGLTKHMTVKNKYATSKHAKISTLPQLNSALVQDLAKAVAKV
Protocol: (§3) Before initiating the CDK1 and CDK2 kinase reactions, each Example compound was dissolved and diluted in DMSO as a solvent across 9 concentration ranges at room temperature. The diluted solutions were then incubated with a mixture of kinase and substrate (and cofactors, if required) for 20 minutes. Next, radioisotope-labeled ATP (^33P-gamma-ATP) was added to proceed with the kinase reaction at room temperature for 120 minutes. After the reaction was completed, the reaction mixture was transferred to a filter paper that binds the radioisotope-labeled catalytic product (^33P-substrate). Unreacted ^33P-ATP was removed by washing with 0.75 % phosphoric acid, and then the radioactive phosphorylated substrate remaining on the filter paper was measured. Kinase activity data were expressed as a percentage of the kinase activity remaining in the test sample compared to a DMSO control group. The half-maximal inhibitory concentration (IC50) for each kinase was calculated using Prism software.
(§4) The CDK1 and CDK2 kinase inhibitory activities of the Example compounds measured by the above method were evaluated according to the following criteria, and the results are presented in Table 14.

CDK2 = CDK2 (Homo sapiens, UniProt P24941); test: CDK2 kinase inhibitory activity assay and selectivity over CDK12; type: biochemical; conditions: for IC50: kinase reaction 120 minutes, 33P-gamma-ATP; for CDK2/CDK12: ratio of CDK2 IC50 to CDK12 IC50
Protocol: as §3, §4

MKN45 cells = test: Gastric cancer cell proliferation inhibitory activity (CellTiter Glo), MKN45; type: cell-based; conditions: Homo sapiens, MKN-45, 72 hours, relative IC50
Protocol: as §1, §2

KATO-III cells = test: Gastric cancer cell proliferation inhibitory activity (CellTiter Glo), KATO-III; type: cell-based; conditions: Homo sapiens, KATO III, 72 hours, relative IC50
Protocol: as §1, §2

CDK13 = CDK13 (Homo sapiens, UniProt Q14004); test: CDK13 kinase inhibitory activity assay (33P-ATP filter binding); type: biochemical
Chain of CDK13 (Q14004 whole entry, species assumed): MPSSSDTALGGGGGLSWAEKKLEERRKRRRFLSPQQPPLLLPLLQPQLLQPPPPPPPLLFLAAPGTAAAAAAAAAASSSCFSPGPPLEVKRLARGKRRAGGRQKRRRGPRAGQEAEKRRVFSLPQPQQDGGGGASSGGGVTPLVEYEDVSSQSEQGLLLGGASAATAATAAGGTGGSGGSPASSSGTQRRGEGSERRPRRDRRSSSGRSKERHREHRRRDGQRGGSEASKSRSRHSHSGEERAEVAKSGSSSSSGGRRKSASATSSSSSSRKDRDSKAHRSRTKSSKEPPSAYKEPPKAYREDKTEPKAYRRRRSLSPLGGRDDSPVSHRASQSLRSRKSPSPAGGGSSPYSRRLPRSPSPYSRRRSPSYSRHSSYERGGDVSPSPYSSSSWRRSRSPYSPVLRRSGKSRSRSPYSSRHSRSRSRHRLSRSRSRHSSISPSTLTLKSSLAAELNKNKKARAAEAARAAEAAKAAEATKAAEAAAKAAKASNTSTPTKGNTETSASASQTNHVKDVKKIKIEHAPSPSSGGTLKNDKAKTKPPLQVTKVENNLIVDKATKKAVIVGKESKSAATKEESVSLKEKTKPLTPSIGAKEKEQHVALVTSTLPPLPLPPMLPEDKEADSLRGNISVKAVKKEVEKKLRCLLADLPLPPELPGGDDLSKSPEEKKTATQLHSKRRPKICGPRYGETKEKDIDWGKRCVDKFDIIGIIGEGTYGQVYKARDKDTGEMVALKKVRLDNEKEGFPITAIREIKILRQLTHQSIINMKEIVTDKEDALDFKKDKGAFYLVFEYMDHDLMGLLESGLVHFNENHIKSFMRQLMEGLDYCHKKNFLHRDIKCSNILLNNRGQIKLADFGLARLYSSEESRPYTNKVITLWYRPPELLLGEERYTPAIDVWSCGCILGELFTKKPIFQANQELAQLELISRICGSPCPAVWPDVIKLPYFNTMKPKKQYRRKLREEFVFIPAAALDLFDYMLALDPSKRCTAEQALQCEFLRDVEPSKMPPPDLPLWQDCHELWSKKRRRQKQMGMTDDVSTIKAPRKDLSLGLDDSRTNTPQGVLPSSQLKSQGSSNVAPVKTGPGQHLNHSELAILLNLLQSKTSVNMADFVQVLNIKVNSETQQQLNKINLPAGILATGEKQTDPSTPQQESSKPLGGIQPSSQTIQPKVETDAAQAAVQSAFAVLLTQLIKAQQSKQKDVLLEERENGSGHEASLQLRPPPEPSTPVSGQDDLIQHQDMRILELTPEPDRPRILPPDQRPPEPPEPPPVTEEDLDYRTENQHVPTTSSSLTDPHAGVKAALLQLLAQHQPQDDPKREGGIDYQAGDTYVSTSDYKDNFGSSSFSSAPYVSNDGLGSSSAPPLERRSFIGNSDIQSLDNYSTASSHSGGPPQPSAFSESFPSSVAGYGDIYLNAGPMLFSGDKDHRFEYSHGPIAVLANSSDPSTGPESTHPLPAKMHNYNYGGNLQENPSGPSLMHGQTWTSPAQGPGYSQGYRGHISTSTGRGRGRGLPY
Chain of CDK13 (O75909 whole entry partner, species assumed): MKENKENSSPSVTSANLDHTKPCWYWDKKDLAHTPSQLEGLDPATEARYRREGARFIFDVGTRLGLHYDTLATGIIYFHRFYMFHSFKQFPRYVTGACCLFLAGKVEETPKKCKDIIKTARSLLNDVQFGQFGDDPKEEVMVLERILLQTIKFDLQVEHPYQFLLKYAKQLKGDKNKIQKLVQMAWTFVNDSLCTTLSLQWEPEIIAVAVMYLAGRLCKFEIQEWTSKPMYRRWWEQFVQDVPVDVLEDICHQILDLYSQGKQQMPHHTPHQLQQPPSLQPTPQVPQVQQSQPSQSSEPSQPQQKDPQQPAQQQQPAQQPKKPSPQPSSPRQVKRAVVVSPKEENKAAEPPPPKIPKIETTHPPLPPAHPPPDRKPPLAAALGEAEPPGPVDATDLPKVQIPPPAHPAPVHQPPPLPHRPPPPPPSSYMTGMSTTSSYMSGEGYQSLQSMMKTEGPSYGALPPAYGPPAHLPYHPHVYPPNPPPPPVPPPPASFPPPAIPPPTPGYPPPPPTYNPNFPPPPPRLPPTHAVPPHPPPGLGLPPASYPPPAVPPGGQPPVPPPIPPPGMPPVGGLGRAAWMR
Procedure, shortened: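 Radiometric filter-binding read-out: after 20 min compound–enzyme/substrate pre-incubation across 9 concentrations, reaction started with ^33P-γ-ATP and run 120 min at room temperature. Filter-bound ^33P-substrate measured after 0.75 % phosphoric acid washes; remaining activity versus DMSO gives IC50.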

HCC70 cells = test: Breast cancer cell proliferation inhibitory activity, HCC70; type: cell-based; conditions: Homo sapiens, 72 hours, CellTiter Glo, relative IC50
Protocol: (§5) Experiments were conducted using three types of breast cancer cell lines to measure the cell proliferation inhibitory ability of each Example compound. For HCC70 cells, 100 µL of cell suspension was dispensed into a 96-well plate using RPMI1640 (Invitrogen) medium containing 10 % FBS, followed by incubation in a cell incubator at 37 °C and 5 % CO2. For BT-20 cells, 100 µL of cell suspension was dispensed into a 96-well plate using EMEM (Invitrogen) medium containing 10 % FBS, followed by incubation in a cell incubator at 37 °C and 5 % CO2. For MDA-MB-436 cells, 100 µL of cell suspension was dispensed into a 96-well plate using L-15 (Invitrogen) medium containing 10 % FBS, followed by incubation in a cell incubator at 37 °C and 0 % CO2. The next day, each Example compound dissolved and diluted in DMSO across 9 concentration ranges and a DMSO control group were treated on the cells for 72 hours. After completion of the compound treatment, 100 µL of CellTiter Glo (Promega) reagent was added to each well of the 96-wellplate, followed by shaking for 10 minutes and standing at room temperature for 10 minutes. After inserting the 96-well plate into an Envision plate reader (PerkinElmer), luminescence signals were measured. Relative IC50 values were calculated by fitting a dose-response curve using XL fit (IDBS Ltd) software.
(§6) The breast cancer cell proliferation inhibitory activities of the Example compounds measured by the method described above were evaluated according to the following criteria, and the results are presented in Table 15.

MDA-MB-436 cells = test: Breast cancer cell proliferation inhibitory activity, MDA-MB-436; type: cell-based; conditions: Homo sapiens, 72 hours, CellTiter Glo, relative IC50
Protocol: as §5, §6

[1] = kinase reaction 120 minutes, 33P-gamma-ATP, read-out: CDK13 IC50

CN1CCN(c2cc(NCc3nc4ccc(F)c(F)c4[nH]3)c3ncc(C(F)(F)F)n3n2)CC1 [Example 8, N-((6,7-difluoro-1H-benzo[d]imidazol-2-yl)methyl)-6-(4-methylpiperazin-1-yl)-3-(trifluoromethyl)imidazo[1,2-b]pyridazin-8-amine] was tested, and the IC50 (SNU-1) was ≤ 200 nM, the IC50 (CDK1) was > 1000 nM and the CDK1/CDK12 (CDK1; ratio of CDK1 IC50 to CDK12 IC50) was “A (CDK1/CDK12 or CDK2/CDK12 > 500-fold)”. For the same compound, the IC50 (CDK2) was > 1000 nM, the CDK2/CDK12 (CDK2) was “B (100-fold < CDK1/CDK12 or CDK2/CDK12 ≤ 500-fold)” and the IC50 (MKN45 cells) was ≤ 200 nM. For the same compound, the IC50 (KATO-III cells) was ≤ 200 nM, the IC50 (CDK13) was < 100 nM and the IC50 (HCC70 cells) was ≤ 50 nM. For the same compound, the IC50 (MDA-MB-436 cells) was ≤ 50 nM.

With CN1CCN(c2cc(NCc3nc4cc(Cl)c(Cl)cc4[nH]3)c3ncc(C(F)(F)F)n3n2)CC1 [Example 29, N-((5,6-dichloro-1H-benzo[d]imidazol-2-yl)methyl)-6-(4-methylpiperazin-1-yl)-3-(trifluoromethyl)imidazo[1,2-b]pyridazin-8-amine] the IC50 (SNU-1) was ≤ 200 nM, the IC50 (CDK1) was > 1000 nM and the IC50 (CDK2) was > 1000 nM. The IC50 (MKN45 cells) was ≤ 200 nM, the IC50 (KATO-III cells) was ≤ 200 nM and the IC50 (CDK13; [1]) was < 100 nM. For the same compound, the IC50 (HCC70 cells) was ≤ 50 nM and the IC50 (MDA-MB-436 cells) was ≤ 50 nM.

In the case of N#CC1CN(c2cc(NCc3nc4cc(Cl)c(Cl)cc4[nH]3)c3ncc(C(F)(F)F)n3n2)C1 [Example 30, 1-(8-(((5,6-dichloro-1H-benzol[d]imidazol-2-yl)methyl)amino)-3-(trifluoromethyl)imidazo[1,2-b]pyridazin-6-yl)azetidine-3-carbonitrile], the IC50 (SNU-1) is reported as ≤ 200 nM, the IC50 (CDK1) is reported as > 1000 nM and the IC50 (CDK2) is reported as > 1000 nM. The CDK2/CDK12 (CDK2) was “C (CDK1/CDK12 or CDK2/CDK12 ≤ 100-fold)”, the IC50 (MKN45 cells) was ≤ 200 nM and the IC50 (KATO-III cells) was ≤ 200 nM. The IC50 (CDK13; [1]) was < 100 nM, the IC50 (HCC70 cells) was ≤ 50 nM and the IC50 (MDA-MB-436 cells) was ≤ 50 nM.

With Nc1ncc(-c2cc(NCc3nc4cc(Cl)c(Cl)cc4[nH]3)c3ncc(C(F)(F)F)n3n2)cn1 [Example 40] the IC50 (CDK1) was > 1000 nM, the IC50 (CDK2) was > 1000 nM and the IC50 (CDK13; [1]) was < 100 nM.
